≈ marks a conversion by molar mass, not a printed value. Where “and” joins values, the source holds several entries; their conditions need not be identical. Identical values can stand only once. Like-named read-outs stand apart in the source and are kept apart here.
Legend:
P388 leukemia cells = assay: Cytotoxicity on tissue culture: growth inhibition of cultured P388 leukemia cells; type: cell-based
Text: (1) Cytotoxicity (on tissue culture)
The barminomycin compounds of the present invention were capable of inhibiting the growth of cultured P388 leukemia cells in very low concentrations. […] For further detail, see the following table.

L1210 leukemia cells = assay: Anti-tumor activity: L1210 leukemia transplanted intraperitoneally into CDF1 mice, life prolongation; type: in vivo; settings: for percentage life prolongation (T/C%): saline control = 100; for intoxication: L1210-bearing CDF1 mice
Protocol: L1210 leukemia cells (1 x 10^5 per animal) were transplanted intraperitoneally into CDF1 mice. Immediately after the transplantation, 0.25 ml of a selected test compound in solution was administered intraperitoneally in accordance with the schedule shown below. The anti-tumor activities of the test compounds in terms of percentage life prolongation (T/C%) are listed in the same table, with the number of days of survival of control mice to which physiological saline had been administered being taken as 100 (day 0 means the day of L1210 transplantation).

[1] = test system: Bacillus subtilis PCI 219; assay: Antimicrobial activity, MIC by agar dilution method; type: cell-based; settings: Bacillus subtilis PCI 219, agar dilution method
Protocol: (§1) The antimicrobial activities of barminomycin I and Ir of the present invention, and that of carminomycin III were determined by the agar dilution method.

E. coli BE1121 = assay: as above; type: cell-based
Protocol: as §1

E. coli BE1186 = assay: as above; type: cell-based
Protocol: as §1

E. coli K-12 = assay: as above; type: cell-based; settings: E. coli K-12, agar dilution method
Protocol: as §1

E. coli NIHJ = assay: as above; type: cell-based
Protocol: as §1

[2] = test system: Klebsiella p eumoniae PCI 602; assay: as above; type: cell-based; settings: Klebsiella p eumoniae PCI 602, agar dilution method
Protocol: as §1

[3] = test system: Micrococcus Lysodeikticus IFO 3333; assay: as above; type: cell-based; settings: Micrococcus Lysodeikticus IFO 3333, agar dilution method
Protocol: as §1

[4] = test system: Mycobacterium smegmatis 607; assay: as above; type: cell-based; settings: Mycobacterium smegmatis 607, agar dilution method
Protocol: as §1

Proteus vulgaris OX19 = assay: as above; type: cell-based
Protocol: as §1

[5] = test system: Pseudomonas aeruginosa A3; assay: as above; type: cell-based
Protocol: as §1

S. aureus MS8710 = assay: as above; type: cell-based
Protocol: as §1

S. aureus MS9610 = assay: as above; type: cell-based
Protocol: as §1

S. aureus Smith = assay: as above; type: cell-based
Protocol: as §1

Serratia marcescens = assay: as above; type: cell-based
Protocol: as §1

[6] = test system: Staphylococcus aureus FAD 209P; assay: as above; type: cell-based
Protocol: as §1

[7] = 0.0078 µg/mouse/day intraperitoneally, 0 - 10 days (daily)
[8] = 0.0157 µg/mouse/day intraperitoneally, 0 - 10 days (daily)
[9] = 0.0625 µg/mouse/day intraperitoneally, 0 - 10 days (daily)
[10] = 0.125 µg/mouse/day intraperitoneally, 0 - 10 days (daily)
[11] = 0.25 µg/mouse/day intraperitoneally, 0 - 10 days (daily)
[12] = 1.25 µg/mouse/day intraperitoneally, 0 - 9 days (daily)
[13] = 2.5 µg/mouse/day intraperitoneally, 0 - 9 days (daily)
[14] = 5 µg/mouse/day intraperitoneally, 0 - 9 days (daily)
[15] = 10 µg/mouse/day intraperitoneally, 0 - 9 days (daily)
[16] = 20 µg/mouse/day intraperitoneally, 0 - 9 days (daily)
[17] = 40 µg/mouse/day intraperitoneally, 0 - 9 days (daily)

Row | Compound | IC50 (P388 leukemia cells) | MIC [1] | MIC (E. coli BE1121) | MIC (E. coli K-12) | MIC (E. coli NIHJ) | MIC [2] | MIC [3] | MIC [4] | MIC (Proteus vulgaris OX19) | MIC [5] | MIC (S. aureus MS8710) | MIC (S. aureus MS9610) | MIC (S. aureus Smith) | MIC (Serratia marcescens) | MIC [6] | further results
1 | CC(=O)C1(O)Cc2c(O)c3c(c(O)c2C(OC2CC4N=CC(C)OC(CC(C)O)OC4C(C)O2)C1)C(=O)c1c(O)cccc1C3=O (single isomer, unassigned) [Barminomycin II] | ~ 0.00002 µg/mℓ | – | – | – | – | – | – | – | – | – | – | – | – | – | – | percentage life prolongation (T/C%) (L1210 leukemia cells; [7]): >500%, >500%; percentage life prolongation (T/C%) (L1210 leukemia cells; [8]): 120%; intoxication (L1210 leukemia cells; [9]): tendency of intoxication; intoxication (L1210 leukemia cells; [10]): tendency of intoxication; percentage life prolongation (T/C%) (L1210 leukemia cells; [10]): 173%; intoxication (L1210 leukemia cells; [11]): Intoxicated to death at 4 days, and 5 days; percentage life prolongation (T/C%) (L1210 leukemia cells; 0.313 µg/mouse/day intraperitoneally, 0 - 10 days (daily)): 140%
2 | CC(=O)C1(O)Cc2c(O)c3c(c(O)c2C(OC2CC4NCC(C)OC(CC(C)O)OC4C(C)O2)C1)C(=O)c1c(O)cccc1C3=O (single isomer, unassigned) [Barminomycin IIr] | 0.002 µg/mL (≈ 0.00312 µM) | – | – | – | – | – | – | – | – | – | – | – | – | – | – | percentage life prolongation (T/C%) (L1210 leukemia cells; [12]): 123%; percentage life prolongation (T/C%) (L1210 leukemia cells; [13]): 129%; percentage life prolongation (T/C%) (L1210 leukemia cells; [14]): 123%; percentage life prolongation (T/C%) (L1210 leukemia cells; [15]): 86%; intoxication (L1210 leukemia cells; [16]): Intoxication; percentage life prolongation (T/C%) (L1210 leukemia cells; [16]): 43%; intoxication (L1210 leukemia cells; [17]): Intoxication; percentage life prolongation (T/C%) (L1210 leukemia cells; [17]): 37%
3 | CC(=O)C1(O)Cc2c(O)c3c(c(O)c2C(OC2CC4NCC(C)OC(CC(C)O)OC4C(C)O2)C1)C(=O)c1c(O)cccc1C3=O (single isomer, unassigned) [Barminomycin Ir] | 0.0015 µg/mL (≈ 0.00234 µM) | 0.39 µg/mL (≈ 0.608 µM) | 0.2 µg/mL (≈ 0.312 µM) | 6.25 µg/mL (≈ 9.74 µM) | 50 µg/mL (≈ 77.9 µM) | 6.25 µg/mL (≈ 9.74 µM) | 0.78 µg/mL (≈ 1.22 µM) | 6.25 µg/mL (≈ 9.74 µM) | >50 µg/mL | 12.5 µg/mL (≈ 19.5 µM) | 1.56 µg/mL (≈ 2.43 µM) | 1.56 µg/mL (≈ 2.43 µM) | 0.78 µg/mL (≈ 1.22 µM) | 3.12 µg/mL (≈ 4.86 µM) | 0.78 µg/mL (≈ 1.22 µM) | percentage life prolongation (T/C%) (L1210 leukemia cells; [12]): 97%; percentage life prolongation (T/C%) (L1210 leukemia cells; [13]): 129%; percentage life prolongation (T/C%) (L1210 leukemia cells; [14]): 141%; intoxication (L1210 leukemia cells; [15]): Tendency of intoxication; percentage life prolongation (T/C%) (L1210 leukemia cells; [15]): 49%; intoxication (L1210 leukemia cells; [16]): Intoxication; percentage life prolongation (T/C%) (L1210 leukemia cells; [16]): 37%; intoxication (L1210 leukemia cells; [17]): Intoxication; percentage life prolongation (T/C%) (L1210 leukemia cells; [17]): 25%; MIC (E. coli BE1186): 0.2 µg/mL (≈ 0.312 µM)
4 | COc1cccc2c1C(=O)c1c(O)c3c(c(O)c1C2=O)C[C@@](O)(C(=O)CO)C[C@@H]3O[C@H]1C[C@H](N)[C@H](O)[C@H](C)O1 [Adriamycin, adriamycin, reference compound] | – | – | – | – | – | – | – | – | – | – | – | – | – | – | – | IC50 (P388 leukemia cells; Mus musculus, read-out: IC50): 0.013 µg/mL (≈ 0.0239 µM)
5 | CC(=O)C1(O)Cc2c(O)c3c(c(O)c2C(OC2CC4N=CC(C)OC(CC(C)O)OC4C(C)O2)C1)C(=O)c1c(O)cccc1C3=O (centres unmarked) [Barminomycin I] | ~ 0.00001 µg/mℓ | <0.1 µg/mL | <0.1 µg/mL | 0.78 µg/mL (≈ 1.22 µM) | 3.12 µg/mL (≈ 4.88 µM) | 0.39 µg/mL (≈ 0.61 µM) | 0.2 µg/mL (≈ 0.313 µM) | 0.78 µg/mL (≈ 1.22 µM) | 3.12 µg/mL (≈ 4.88 µM) | 1.56 µg/mL (≈ 2.44 µM) | 0.2 µg/mL (≈ 0.313 µM) | 0.2 µg/mL (≈ 0.313 µM) | 0.2 µg/mL (≈ 0.313 µM) | 0.78 µg/mL (≈ 1.22 µM) | 0.2 µg/mL (≈ 0.313 µM) | percentage life prolongation (T/C%) (L1210 leukemia cells; [7]): 160%; percentage life prolongation (T/C%) (L1210 leukemia cells; [8]): 187% and 120%; percentage life prolongation (T/C%) (L1210 leukemia cells; [9]): 213% and 147%; intoxication (L1210 leukemia cells; [10]): tendency of intoxication; percentage life prolongation (T/C%) (L1210 leukemia cells; [10]): 147%; intoxication (L1210 leukemia cells; [11]): Intoxicated to death at 4 days; percentage life prolongation (T/C%) (L1210 leukemia cells; [11]): 120%; MIC (E. coli BE1186): <0.1 µg/mL
6 | CC(=O)[C@]1(O)Cc2c(O)c3c(c(O)c2[C@@H](O[C@H]2C[C@H](N)[C@H](O)[C@H](C)O2)C1)C(=O)c1c(O)cccc1C3=O [Carminomycin I, carminomycin I, reference compound] | – | – | – | – | – | – | – | – | – | – | – | – | – | – | – | IC50 (P388 leukemia cells; Mus musculus, read-out: IC50): 0.002 µg/mL (≈ 0.00389 µM)
7 | CC(=O)C1(O)Cc2c(O)c3c(c(O)c2C(OC2CC(N)C(OC(CC(C)O)OC(C)CO)C(C)O2)C1)C(=O)c1c(O)cccc1C3=O (centres unmarked) [Carminomycin II, carminomycin II, reference compound] | 0.010 µg/mL (≈ 0.0152 µM) | – | – | – | – | – | – | – | – | – | – | – | – | – | – | –
8 | carminomycin III [reference compound] | 0.006 µg/mL | 1.56 µg/mL | 1.56 µg/mL | >50 µg/mL | >50 µg/mL | 50 µg/mL | 1.56 µg/mL | 6.25 µg/mL | >50 µg/mL | >50 µg/mL | 1.56 µg/mL | 1.56 µg/mL | 3.12 µg/mL | 25 µg/mL | 3.12 µg/mL | –

Source: patent EP0206138A1, “Anthracycline compounds, a process for their preparation and their use as medicaments” (priority 1985, dated 1986)
